Test results published in ChEMBL document CHEMBL1817560, “Selectivity of kinase inhibitor fragments” (J Med Chem, 2011).

Columns and labels:
Conditions in all cases: read-out: IC50
[1] = target: Mitogen-activated protein kinase 8 (Homo sapiens, UniProt P45983); assay: Inhibition of JNK1 expressed in Escherichia coli or baculovirus-infected insect cells by TR-FRET assay
[2] = target: RAC-alpha serine/threonine-protein kinase (Homo sapiens, UniProt P31749); assay: Inhibition of AKT1 expressed in Escherichia coli or baculovirus-infected insect cells by scintillation proximity assay
[3] = target: T1, Inhibitor of nuclear factor kappa-B kinase subunit beta (Homo sapiens, UniProt O14920); assay: biochemical; format: cell-based
T1 sequence (O14920 whole entry): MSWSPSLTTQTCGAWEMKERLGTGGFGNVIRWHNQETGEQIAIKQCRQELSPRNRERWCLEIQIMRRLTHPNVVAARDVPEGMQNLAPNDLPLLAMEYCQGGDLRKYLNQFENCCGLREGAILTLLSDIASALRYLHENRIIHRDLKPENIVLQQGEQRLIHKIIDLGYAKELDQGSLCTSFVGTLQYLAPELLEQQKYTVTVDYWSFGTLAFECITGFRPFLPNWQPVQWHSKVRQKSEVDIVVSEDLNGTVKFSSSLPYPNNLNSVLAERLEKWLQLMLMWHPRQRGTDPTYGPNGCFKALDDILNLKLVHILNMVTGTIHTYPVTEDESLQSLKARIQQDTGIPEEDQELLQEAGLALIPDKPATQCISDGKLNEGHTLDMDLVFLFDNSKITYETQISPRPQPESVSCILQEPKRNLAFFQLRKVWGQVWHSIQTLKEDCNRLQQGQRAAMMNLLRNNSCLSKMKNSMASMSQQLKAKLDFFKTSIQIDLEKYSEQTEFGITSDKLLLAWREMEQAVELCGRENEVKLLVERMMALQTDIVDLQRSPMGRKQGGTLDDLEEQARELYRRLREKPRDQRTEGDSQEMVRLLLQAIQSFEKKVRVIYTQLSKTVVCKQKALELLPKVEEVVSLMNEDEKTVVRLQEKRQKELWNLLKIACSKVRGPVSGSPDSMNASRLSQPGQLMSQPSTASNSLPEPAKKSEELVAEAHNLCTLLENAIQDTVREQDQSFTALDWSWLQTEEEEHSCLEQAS

Mitogen-activated protein kinase 8, sequence (P45983 whole entry): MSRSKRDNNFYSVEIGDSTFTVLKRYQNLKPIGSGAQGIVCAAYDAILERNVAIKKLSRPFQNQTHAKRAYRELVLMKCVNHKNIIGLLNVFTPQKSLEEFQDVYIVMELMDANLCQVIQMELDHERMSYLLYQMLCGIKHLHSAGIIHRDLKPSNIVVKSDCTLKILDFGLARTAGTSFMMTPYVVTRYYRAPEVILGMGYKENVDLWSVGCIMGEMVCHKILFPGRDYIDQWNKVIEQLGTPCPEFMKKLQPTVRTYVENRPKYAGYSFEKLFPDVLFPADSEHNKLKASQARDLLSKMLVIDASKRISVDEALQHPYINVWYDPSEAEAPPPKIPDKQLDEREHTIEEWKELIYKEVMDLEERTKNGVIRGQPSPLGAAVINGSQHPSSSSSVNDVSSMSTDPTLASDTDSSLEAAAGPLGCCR
RAC-alpha serine/threonine-protein kinase, sequence (P31749 whole entry): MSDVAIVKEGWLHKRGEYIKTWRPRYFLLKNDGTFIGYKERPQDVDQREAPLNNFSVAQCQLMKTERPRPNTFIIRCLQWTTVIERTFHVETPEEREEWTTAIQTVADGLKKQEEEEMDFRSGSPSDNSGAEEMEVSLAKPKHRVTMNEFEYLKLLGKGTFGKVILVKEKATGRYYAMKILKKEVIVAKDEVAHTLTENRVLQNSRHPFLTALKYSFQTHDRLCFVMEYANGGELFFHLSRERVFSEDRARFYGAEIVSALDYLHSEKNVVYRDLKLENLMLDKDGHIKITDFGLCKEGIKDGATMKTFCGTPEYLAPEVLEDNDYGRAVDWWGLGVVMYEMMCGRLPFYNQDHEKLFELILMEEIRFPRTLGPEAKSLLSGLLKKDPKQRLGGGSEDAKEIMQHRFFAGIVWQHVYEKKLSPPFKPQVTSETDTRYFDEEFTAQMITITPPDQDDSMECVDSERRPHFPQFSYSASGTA

How did the IC50 [1] turn out when Nc1ccc(-c2cnc3[nH]cc(-c4ccoc4)c3c2)cc1 was run?
Its IC50 is under 500 nM.

Which IC50 [2] does the source give for NCC(NC(=O)c1ccc(-c2ccnc3[nH]ccc23)s1)c1ccccc1 (stereo not drawn) here?
Its IC50 is 190 nM.

With Cc1cc2c(-c3ccc(S(=O)(=O)N(C)CCO)cc3)ccnc2[nH]1 as the compound, how does the IC50 [3] read?
The IC50 was 15 nM.
